Test results reported in patent US10865415B2, “Prevention, diagnosis and treatment of cancer overexpressing GPR160” (Shanghai Institute of Materia Medica, Chinese Academy of …, priority 2015, dated 2020).
Entries after “also recorded” stand apart in the source; their conditions may differ.

Assays:
Type in all cases: cell-based, human
GPR160 gene = assay: Quantitative RT-PCR of GPR160 expression after lentiviral shRNA infection; settings: compared with control virus ShGPR160-S10
Description: The total RNA of each cultured cell was extracted with Trizol reagent (Invitrogen), Oligo-dT was used as primer, and reverse transcriptase was transcribed to generate cDNA. The template and primers were mixed with SYBR detection reagents (TaKaRa) and detected by 7300 Quantitative PCR instrument. The reference gene encodes the β-actin gene ACTB (NC 000007.14).
The lentivirus shRNA expression plasmid (Cat. No. TL312662) was purchased from OriGene, in which the target gene sequence targeted by the GPR160 siRNA is shown in SEQ ID NO: 1, and the sense strand sequence of the siRNA is shown in SEQ ID NO.: 6, SEQ ID NO: 7, SEQ ID NO.: 8, SEQ ID NO: 9, respectively. The sense strand sequence of the non-specific control siRNA is shown in SEQ ID NO: 10.
The siRNA expression plasmid pGFP-C-shGPR160 and the control plasmid pGFP-C-Scramble were extracted with Qiagene plasmid extraction kit and mixed with the packaging plasmid, and then 293T cells that had been inoculated for 24 hours were transfected with MegaTran (OriGene), and the virus supernatant was collected after 72 hours. After centrifugation at 15000 rpm for 15 minutes to remove cell debris, a quarter volume of Lentivirus Concentration (Biomiga) was added for concentration, and was stored at −80° C. in aliquots. Viruses produced by transfection of pGFP-C-shGPR160 plasmid containing the sequences SEQ ID NO: 6 to SEQ ID NO: 9 were labeled as ShGPR160-S6, ShGPR160-S7, ShGPR160-S8, and ShGPR160-S9, respectively. The virus produced by transfection of the non-specific control plasmid was designated ShGPR160-S10.
PC-3 and LNCaP cells were infected with the prepared lentiviruses at multiplicity of infection (MOI) of 40 and 10, respectively. After 72 hours, the total RNA of the infected cells was extracted, and the expression of GPR160 in the cells was detected by quantitative RT-PCR.

PC-3 cells [1] = assay: CCK-8 proliferation assay; settings: infected 48 hours, cultured 1, 3 and 5 days, Scramble group = 100%
Protocol: (§1) To examine the effect of GPR160-specific SiRNAs on proliferation of prostate cancer cells, PC-3 and LNCaP cells, after infected by virus for 48 hours, were plated in 96-well plates at a density of 5000/100/μl/well and 2500/100 μl/well, respectively, and cultured for 1, 3, and 5 days respectively, 10 μl/well of CCK-8 detection reagent (TaKaRa) was added 4 hours before the end of culture, and light absorption at 450 nm was detected at the end of incubation. The reference wavelength was 650 nm. The reading of Scramble group was set to 100%.

LNCaP cells [2] = assay: CCK-8 proliferation assay; settings: infected 48 hours, cultured 1, 3 and 5 days, Scramble group = 100%
Protocol: as §1

PC-3 cells [3] = assay: Colony formation, crystal violet staining; settings: 12 to 20 days culture, versus ShGPR160-S10 control group (100%)
Protocol: (§2) Based on the above results, PC-3 and LNCaP cells were infected with ShGPR160-S6, ShGPR160-S7, and ShGPR160-S10 for 48 hours, and inoculated into […] at 1000/2 ml/well. After 12 to 20 days of continuous culture, the cells were stained with 0.1% crystal violet solution, dried, and the number of colonies per well counted. The group infected with ShGPR160-S10 virus was set as a 100% control.

LNCaP cells [4] = assay: Colony formation, crystal violet staining; settings: 12 to 20 days culture, versus ShGPR160-S10 control group (100%)
Protocol: as §2

[5] = LNCaP cells, MOI 10, 72 hours after infection
[6] = PC-3 cells, MOI 40, 72 hours after infection

ShGPR160-S6: Lentivirus from pGFP-C-shGPR160 plasmid; siRNA sense strand SEQ ID NO.: 6, 5′-TTGGTACAGGCTATCAGGATAACTTCCTA-3′
inhibitory efficiency on GPR160 expression (GPR160 gene; [5]): 86.2%
inhibitory efficiency on GPR160 expression (GPR160 gene; [6]): 87.8%
effect on proliferation (PC-3 cells [1]): significantly inhibited
effect on proliferation (LNCaP cells [2]): significantly inhibited
number of clones formed (PC-3 cells [3]): significantly less
number of clones formed (LNCaP cells [4]): significantly less

ShGPR160-S7: Lentivirus from pGFP-C-shGPR160 plasmid; siRNA sense strand SEQ ID NO.: 7, 5′-TTCTATGTCAGCATTCAGAGTTACTGGCT-3′
inhibitory efficiency on GPR160 expression (GPR160 gene; [5]): 91.7%
inhibitory efficiency on GPR160 expression (GPR160 gene; [6]): 85.0%
effect on proliferation (PC-3 cells [1]): significantly inhibited
effect on proliferation (LNCaP cells [2]): significantly inhibited
number of clones formed (PC-3 cells [3]): significantly less
number of clones formed (LNCaP cells [4]): significantly less

ShGPR160-S8: Lentivirus from pGFP-C-shGPR160 plasmid; siRNA sense strand SEQ ID NO.: 8, 5′-CCATCTACCAAAGCCTGAAGGCACAGAAT-3′
inhibitory efficiency on GPR160 expression (GPR160 gene; [5]): 32.8%
inhibitory efficiency on GPR160 expression (GPR160 gene; [6]): 41.7%
effect on proliferation (LNCaP cells [2]): no inhibitory effect; also recorded: no significant effect

ShGPR160-S9: Lentivirus from pGFP-C-shGPR160 plasmid; siRNA sense strand SEQ ID NO.: 9, 5′-CCATTTGTCAACTGGAAGTGCTGCTTCAT-3′
inhibitory efficiency on GPR160 expression (GPR160 gene; [5]): 56.2%
inhibitory efficiency on GPR160 expression (GPR160 gene; [6]): 41.8%
